Results from the OligoGym collection.
Values joined by “and” are separate entries in the source; they are usually repeats but may differ in a detail not shown here. Equal entries are not always repeated. After the bases stand the sugars from the 5' end (letter, count) and the backbone: PS all phosphorothioate, else s phosphorothioate and o phosphodiester by linkage. Methylation of C is not given here. e = 2'-O-(2-methoxyethyl) (MOE); k = constrained ethyl (cEt); d = 2'-deoxy (DNA)

Columns and labels:
[1] = biological target: IRF5; conditions: ASO
[2] = biological target: DGAT2; conditions: ASO

## AAGGGCACAGCGCAGG (sugars k3 d9 k3 e1, PS)
[1]; KARPAS-229, 4 µM
  target mRNA inhibition: 3%

## AAGGGCACAGCGCAGG (sugars kekdddddddddeekk, PS)
[1]; KARPAS-229, 4 µM
  target mRNA inhibition: 0%

## AAGGGCACAGCGCAGG (sugars kkkdddddddddkeke, PS)
[1]; KARPAS-229, 4 µM
  target mRNA inhibition: 0%

## AAGGGCACAGCGCAGG (sugars kkkddddddddkekek, PS)
[1]; KARPAS-229, 4 µM
  target mRNA inhibition: 0%

## AATAGGAGTGAGACGA (sugars k3 d10 k3, PS)
[1]; KARPAS-229, 4 µM
  target mRNA inhibition: 25%

## AATTTTGCATTCCATA (sugars k3 d10 k3, PS)
[1]; KARPAS-229, 4 µM
  target mRNA inhibition: 41%

## AATTTTGTGACTGTAT (sugars k3 d10 k3, PS)
[1]; KARPAS-229, 4 µM
  target mRNA inhibition: 0%

## ACCACTGTGTACCCCA (sugars kkdddddddddkekek, PS)
[1]; KARPAS-229, 4 µM
  target mRNA inhibition: 17%

## ACCACTGTGTACCCCA (sugars kkkddddddddkdkdk, PS)
[1]; KARPAS-229, 4 µM
  target mRNA inhibition: 40%

## ACCATTCTATGCCTTT (sugars k3 d10 k3, PS)
[1]; KARPAS-229, 0.44444 µM
  target mRNA inhibition: 44%
[1]; KARPAS-229, 1.33333 µM
  target mRNA inhibition: 60%
[1]; KARPAS-229, 4 µM
  target mRNA inhibition: 70% and 74%
[1]; KARPAS-229, 12 µM
  target mRNA inhibition: 86%

## ACCATTCTATGCCTTT (sugars kddddddddddkekek, PS)
[1]; KARPAS-229, 4 µM
  target mRNA inhibition: 0%

## ACCATTCTATGCCTTT (sugars kdddddddddkekeke, PS)
[1]; KARPAS-229, 4 µM
  target mRNA inhibition: 10%

## ACCATTCTATGCCTTT (sugars kkddddddddddkeke, PS)
[1]; KARPAS-229, 4 µM
  target mRNA inhibition: 51%

## ACTGACACAGGCGGAT (sugars k2 d8 e4 k2, PS)
[1]; KARPAS-229, 4 µM
  target mRNA inhibition: 0%

## AGATGGTGTTATCTCC (sugars k3 d9 k3 e1, PS)
[1]; KARPAS-229, 4 µM
  target mRNA inhibition: 0%

## AGATGGTGTTATCTCC (sugars kekdddddddddeekk, PS)
[1]; KARPAS-229, 4 µM
  target mRNA inhibition: 0%

## AGCTTGGTCTTGACCT (sugars kdddddddddkekeke, PS)
[1]; KARPAS-229, 4 µM
  target mRNA inhibition: 14%

## AGCTTGGTCTTGACCT (sugars kkddddddddddkeke, PS)
[1]; KARPAS-229, 4 µM
  target mRNA inhibition: 0%

## AGCTTGGTCTTGACCT (sugars kkdddddddddkekek, PS)
[1]; KARPAS-229, 4 µM
  target mRNA inhibition: 8%

## AGCTTGGTCTTGACCT (sugars kkkddddddddkekek, PS)
[1]; KARPAS-229, 4 µM
  target mRNA inhibition: 3%

## AGGAAGTGAGTCTCAA (sugars kkddddddddkekekk, PS)
[1]; KARPAS-229, 4 µM
  target mRNA inhibition: 20%

## AGGAAGTGAGTCTCAA (sugars kkkdddddddddkeke, PS)
[1]; KARPAS-229, 4 µM
  target mRNA inhibition: 21%

## AGGAGTGAGACGAGCA (sugars k3 d9 k3 e1, PS)
[1]; KARPAS-229, 4 µM
  target mRNA inhibition: 37%

## AGGAGTGAGACGAGCA (sugars kkkddddddddkekek, PS)
[1]; KARPAS-229, 4 µM
  target mRNA inhibition: 24%

## AGGGCACAGCGCAGGT (sugars k3 d10 k3, PS)
[1]; KARPAS-229, 4 µM
  target mRNA inhibition: 2%

## AGGGTGAGTAGGACGA (sugars k3 d10 k3, PS)
[1]; KARPAS-229, 4 µM
  target mRNA inhibition: 19%

## AGGTTCTTGGACTCTC (sugars k3 d9 k3 e1, PS)
[1]; KARPAS-229, 4 µM
  target mRNA inhibition: 19%

## AGGTTCTTGGACTCTC (sugars kkddddddddddkeke, PS)
[1]; KARPAS-229, 4 µM
  target mRNA inhibition: 41%

## AGGTTCTTGGACTCTC (sugars kkddddddddkekekk, PS)
[1]; KARPAS-229, 4 µM
  target mRNA inhibition: 0%

## AGTCATGGGCGTGAGGC (sugars kdddddddddkekeked, PS)
[1]; KARPAS-229, 4 µM
  target mRNA inhibition: 17%

## AGTGAGTCTCAAACCA (sugars k3 d10 k3, PS)
[1]; KARPAS-229, 4 µM
  target mRNA inhibition: 0%

## ATCACCACTGTGTACC (sugars k3 d10 k3, PS)
[1]; KARPAS-229, 4 µM
  target mRNA inhibition: 11%

## ATCACCACTGTGTACC (sugars kdddddddddkekeke, PS)
[1]; KARPAS-229, 4 µM
  target mRNA inhibition: 0%

## ATCACCACTGTGTACC (sugars kkddddddddddkeke, PS)
[1]; KARPAS-229, 4 µM
  target mRNA inhibition: 0%

## ATCACCACTGTGTACC (sugars kkkddddddddkekek, PS)
[1]; KARPAS-229, 4 µM
  target mRNA inhibition: 0%

## ATGAGTCATGGGCTGA (sugars k3 d10 k3, PS)
[1]; KARPAS-229, 4 µM
  target mRNA inhibition: 21%

## ATGAGTCATGGGCTGA (sugars kekddddddddkeekk, PS)
[1]; KARPAS-229, 4 µM
  target mRNA inhibition: 0%

## ATGAGTCATGGGCTGA (sugars kkddddddddkekekk, PS)
[1]; KARPAS-229, 4 µM
  target mRNA inhibition: 0%

## ATGAGTCATGGGCTGA (sugars kkkdddddddddkeke, PS)
[1]; KARPAS-229, 4 µM
  target mRNA inhibition: 9%

## ATGAGTCATGGGCTGA (sugars kkkddddddddkdkdk, PS)
[1]; KARPAS-229, 4 µM
  target mRNA inhibition: 0%

## ATGGTGTTATCTCCGT (sugars kkddddddddkekekk, PS)
[1]; KARPAS-229, 4 µM
  target mRNA inhibition: 0%

## CAACATCCATCAATGA (sugars k3 d10 k3, PS)
[1]; KARPAS-229, 4 µM
  target mRNA inhibition: 0%

## CAATGCAACATCCATC (sugars k3 d10 k3, PS)
[1]; KARPAS-229, 4 µM
  target mRNA inhibition: 0%

## CACATCTCCACATCAG (sugars k3 d10 k3, PS)
[1]; KARPAS-229, 4 µM
  target mRNA inhibition: 45%

## CACATCTCCACATCAG (sugars kdddddddddkekeke, PS)
[1]; KARPAS-229, 4 µM
  target mRNA inhibition: 2%

## CACATCTCCACATCAG (sugars kekdddddddddeekk, PS)
[1]; KARPAS-229, 4 µM
  target mRNA inhibition: 26%

## CACATCTCCACATCAG (sugars kkddddddddddkeke, PS)
[1]; KARPAS-229, 4 µM
  target mRNA inhibition: 23%

## CACATCTCCACATCAG (sugars kkkdddddddddkeke, PS)
[1]; KARPAS-229, 4 µM
  target mRNA inhibition: 38%

## CACATCTCCACATCAG (sugars kkkddddddddkdkdk, PS)
[1]; KARPAS-229, 4 µM
  target mRNA inhibition: 39%

## TCATGAGAAGCTTAGAAGGC (sugars e5 d10 e5, PS)
[2]; HepG2, 0.12 µM
  target mRNA inhibition: 58%

## TCCAAAGATATAGTTCCTGG (sugars e5 d10 e5, PS)
[2]; HepG2, 0.12 µM
  target mRNA inhibition: 63%

## TCCAGACTGGATTTACTGAA (sugars e5 d10 e5, PS)
[2]; HepG2, 0.12 µM
  target mRNA inhibition: 60%

## TCCCAGACCCCTCGCGCGAC (sugars e5 d10 e5, PS)
[2]; HepG2, 0.12 µM
  target mRNA inhibition: 36%

## TCCCCAATATCATACTATCT (sugars e5 d10 e5, PS)
[2]; HepG2, 2.5 µM
  target mRNA inhibition: 50%
[2]; HepG2, 10 µM
  target mRNA inhibition: 88%
